In series [1] the test system is mammary artery samples. The class given is cell-based, Human.
Series [2] has as its system endothelial mediated relaxation.
In series [3] the test system is radial artery rings. The format is cell-based, Human.
Series [4] deals with vascular smooth muscle. The class given is cell-based, Human.
For series [5], the system named is radial artery tissue. Put plainly: spontaneous contractility of radial artery tissue. The class given is cell-based, Human. Conditions: radial artery tissue (FIG. 11A).

“Also recorded” adds a separate entry of the source.

For cholera toxin, in series [1], the “concentration most effective at inhibiting angiotensin II induced contraction” value worked out at 0.57 µM. Also, in series [2], the “endothelial mediated relaxation after incubation with toxin” value is on record as “no impairment”. In addition, in series [3], the “concentration most effective at inhibiting adrenaline-mediated contraction” value came out at 25 µg/mL; the “effect on dose response curves to adrenaline, angiotensin II or PGF2α” value was “inhibited the contraction”; the “effect on subsequent vasoconstrictor responses (in words)” value was “inhibit the maximal contraction force produced and the sensitivity”; the “incubation time at which toxin is effective in inhibiting adrenaline-induced vasoconstriction” value stood at 30 min. Besides, the “inhibition of contraction, depending on the vasoconstrictor” value in series [3] was 15-50%. Besides, the “optimal concentration most effective at reducing contractile activity” value in series [4] is “about 0.6 μM; also recorded: about 51 μg/ml”.
`CC(COc1ccccc1)N(CCCl)Cc1ccccc1` (stereo not shown) [phenoxybenzamine, Phenoxybenzamine, reference compound]: in series [5], the “effect on spontaneous contraction” value is recorded as “no effect; also recorded: lack of effect”. Moreover, the “effect on angiotensin II-induced contraction” value in series [3] is “no inhibitory effect”.
pertussis toxin: in series [2], the “endothelial mediated relaxation after incubation with toxin” value is “no impairment”. In series [3], the “concentration most effective at inhibiting adrenaline-mediated contraction” value came to 50 µg/mL; the “effect on dose response curves to adrenaline, angiotensin II or PGF2α” value is “inhibited the contraction”; the “effect on subsequent vasoconstrictor responses (in words)” value is “inhibit the maximal contraction force produced and the sensitivity”; the “incubation time at which toxin is effective in inhibiting adrenaline-induced vasoconstriction” value turned out to be 60 min. In series [3], the “inhibition of contraction, depending on the vasoconstrictor” value was 20-60%.

The record behind these values is patent US20100047284A1 (priority 2006, published 2010).
